Test results published in US10722515B2, “Dual CLK/CDK1 inhibitors for cancer treatment” (SRI INTERNATIONAL, priority 2016, dated 2020).

What was measured:
Type in all cases: biochemical
ErbB2(h) = target: T1, ErbB2(h) (Homo sapiens, UniProt P04626); test: kinase profile, radiometric assay, ErbB2
T1 construct: purchased Eurofins, Dundee, Scotland
Protocol: (§1) Enzymatic biochemical activities were evaluated in radiometric protein kinase assays (Eurofins, Dundee, Scotland). Kinases are incubated with buffer, substrate and [γ-^33P]-ATP (specific activity approx. 500 cpm/pmol, concentration as required). The reaction is initiated by the addition of the MgATP mix. After incubation for 40 minutes at room temperature, the reaction is stopped by the addition of 3% phosphoric acid solution. 10 μL of the reaction is then spotted onto a P30 filtermat and washed three times for 5 minutes in 75 mM phosphoric acid and once in methanol prior to drying and scintillation counting.
(§2) All compounds are prepared to 50× final assay concentration in 100% DMSO. Positive control wells contain all components of the reaction with 2% DMSO. Blank wells contain all components of the reaction, with a reference inhibitor replacing the compound of interest. Each kinase is assigned a standard assay concentration of ATP within 20 μM of its apparent KM. Compounds were screened at 1 μM in duplicate or tested at 10 concentrations at half log dilution starting from 10 μM in singlicate. Dose response curves were fitted with four parameter logistic curve to obtain IC50 values. The average coefficient of variation (CV) of the conducted assay is 4.4%.

CLK1(h) = target: T2, CLK1(h) (Homo sapiens, UniProt P49759); test: radiometric protein kinase assay, CLK1; settings: enzyme inhibition, radiometric, ATP 10 μM; read-out: IC50 (nM) CLK1
T2 construct: purchased Eurofins, Dundee, Scotland
Protocol: as §1, §2

ALK(h) = target: T3, ALK(h) (Homo sapiens, UniProt Q9UM73); test: kinase profile, radiometric assay, ALK
T3 construct: purchased Eurofins, Dundee, Scotland
Protocol: as §1, §2

CLK4(h) = target: T4, CLK4(h) (Homo sapiens, UniProt Q9HAZ1); test: radiometric protein kinase assay, CLK4; settings: enzyme inhibition, ATP 10 μM
T4 construct: purchased Eurofins, Dundee, Scotland
Protocol: as §1, §2

Flt3(h) = target: T5, Flt3(h) (Homo sapiens, UniProt P36888); test: kinase profile, radiometric assay, Flt3
T5 construct: purchased Eurofins, Dundee, Scotland
T5 sequence (P36888 27-993): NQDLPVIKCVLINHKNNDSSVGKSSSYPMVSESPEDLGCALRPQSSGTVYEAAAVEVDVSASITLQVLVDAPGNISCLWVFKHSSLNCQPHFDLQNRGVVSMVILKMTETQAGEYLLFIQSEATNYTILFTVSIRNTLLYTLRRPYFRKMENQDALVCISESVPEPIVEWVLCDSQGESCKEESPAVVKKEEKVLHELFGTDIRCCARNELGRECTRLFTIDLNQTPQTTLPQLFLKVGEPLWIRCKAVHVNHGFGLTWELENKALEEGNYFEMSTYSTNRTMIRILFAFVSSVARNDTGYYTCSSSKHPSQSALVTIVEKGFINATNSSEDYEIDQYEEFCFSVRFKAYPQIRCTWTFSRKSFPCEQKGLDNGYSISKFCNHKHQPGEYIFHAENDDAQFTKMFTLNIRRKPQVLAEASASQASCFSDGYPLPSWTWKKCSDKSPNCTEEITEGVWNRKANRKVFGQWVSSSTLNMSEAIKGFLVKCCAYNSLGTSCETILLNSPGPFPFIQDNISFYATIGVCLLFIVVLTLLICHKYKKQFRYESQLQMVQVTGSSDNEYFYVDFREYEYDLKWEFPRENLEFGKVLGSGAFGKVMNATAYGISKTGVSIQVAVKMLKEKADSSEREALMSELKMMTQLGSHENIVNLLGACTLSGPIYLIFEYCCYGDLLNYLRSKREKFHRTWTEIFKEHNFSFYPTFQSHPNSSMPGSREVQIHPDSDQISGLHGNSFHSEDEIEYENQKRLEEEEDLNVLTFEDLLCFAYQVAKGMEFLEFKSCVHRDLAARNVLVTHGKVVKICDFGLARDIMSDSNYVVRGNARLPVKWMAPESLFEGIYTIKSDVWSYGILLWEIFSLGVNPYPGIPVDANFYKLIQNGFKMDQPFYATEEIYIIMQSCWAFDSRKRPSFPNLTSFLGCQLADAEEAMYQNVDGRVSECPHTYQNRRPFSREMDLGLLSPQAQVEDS
Protocol: as §1, §2

IKKβ(h) = target: T6, IKKβ(h) (Homo sapiens, UniProt O14920); test: kinase profile, radiometric assay, IKKβ
T6 construct: purchased Eurofins, Dundee, Scotland
T6 sequence (O14920 1-756): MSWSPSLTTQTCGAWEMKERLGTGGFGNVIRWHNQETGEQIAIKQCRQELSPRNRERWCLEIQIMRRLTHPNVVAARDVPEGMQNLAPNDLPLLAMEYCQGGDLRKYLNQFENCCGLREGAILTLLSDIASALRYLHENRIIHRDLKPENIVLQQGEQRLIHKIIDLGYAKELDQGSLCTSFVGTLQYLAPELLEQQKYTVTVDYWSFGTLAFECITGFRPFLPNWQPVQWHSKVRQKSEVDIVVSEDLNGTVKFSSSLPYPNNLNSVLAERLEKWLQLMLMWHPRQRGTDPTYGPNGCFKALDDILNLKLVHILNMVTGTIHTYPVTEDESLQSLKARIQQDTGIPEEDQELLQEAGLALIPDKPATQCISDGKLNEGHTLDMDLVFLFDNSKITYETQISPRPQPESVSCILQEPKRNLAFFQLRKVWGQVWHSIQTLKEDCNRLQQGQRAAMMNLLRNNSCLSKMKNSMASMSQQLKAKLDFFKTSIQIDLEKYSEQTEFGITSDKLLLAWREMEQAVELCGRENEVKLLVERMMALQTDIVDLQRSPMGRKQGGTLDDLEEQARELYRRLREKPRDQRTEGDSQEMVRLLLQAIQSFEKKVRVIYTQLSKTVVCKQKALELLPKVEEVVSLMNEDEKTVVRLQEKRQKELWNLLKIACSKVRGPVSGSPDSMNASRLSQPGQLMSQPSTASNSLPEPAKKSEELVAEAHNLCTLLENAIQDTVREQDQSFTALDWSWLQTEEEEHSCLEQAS
Protocol: as §1, §2

JNK2α2(h) = target: T7, JNK2α2(h) (Homo sapiens, UniProt P45984); test: kinase profile, radiometric assay, JNK2α2
T7 construct: purchased Eurofins, Dundee, Scotland
Protocol: as §1, §2

Plk1(h) = target: T8, Plk1(h) (Homo sapiens, UniProt P53350); test: kinase profile, radiometric assay, Plk1
T8 construct: purchased Eurofins, Dundee, Scotland
Protocol: as §1, §2

T4 sequence (Q9HAZ1 whole entry): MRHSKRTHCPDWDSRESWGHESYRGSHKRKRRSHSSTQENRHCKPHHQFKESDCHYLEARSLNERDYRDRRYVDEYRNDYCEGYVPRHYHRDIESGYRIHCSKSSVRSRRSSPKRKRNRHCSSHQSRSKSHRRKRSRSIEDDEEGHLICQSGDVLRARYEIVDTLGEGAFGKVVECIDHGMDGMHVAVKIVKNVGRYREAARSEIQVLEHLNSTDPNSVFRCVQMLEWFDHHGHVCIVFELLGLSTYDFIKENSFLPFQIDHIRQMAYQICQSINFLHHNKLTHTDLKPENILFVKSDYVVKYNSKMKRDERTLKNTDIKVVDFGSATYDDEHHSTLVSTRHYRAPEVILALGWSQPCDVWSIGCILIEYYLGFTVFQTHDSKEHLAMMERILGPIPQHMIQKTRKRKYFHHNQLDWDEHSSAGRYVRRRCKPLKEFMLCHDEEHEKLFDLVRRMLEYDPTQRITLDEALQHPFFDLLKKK
T8 sequence (P53350 whole entry): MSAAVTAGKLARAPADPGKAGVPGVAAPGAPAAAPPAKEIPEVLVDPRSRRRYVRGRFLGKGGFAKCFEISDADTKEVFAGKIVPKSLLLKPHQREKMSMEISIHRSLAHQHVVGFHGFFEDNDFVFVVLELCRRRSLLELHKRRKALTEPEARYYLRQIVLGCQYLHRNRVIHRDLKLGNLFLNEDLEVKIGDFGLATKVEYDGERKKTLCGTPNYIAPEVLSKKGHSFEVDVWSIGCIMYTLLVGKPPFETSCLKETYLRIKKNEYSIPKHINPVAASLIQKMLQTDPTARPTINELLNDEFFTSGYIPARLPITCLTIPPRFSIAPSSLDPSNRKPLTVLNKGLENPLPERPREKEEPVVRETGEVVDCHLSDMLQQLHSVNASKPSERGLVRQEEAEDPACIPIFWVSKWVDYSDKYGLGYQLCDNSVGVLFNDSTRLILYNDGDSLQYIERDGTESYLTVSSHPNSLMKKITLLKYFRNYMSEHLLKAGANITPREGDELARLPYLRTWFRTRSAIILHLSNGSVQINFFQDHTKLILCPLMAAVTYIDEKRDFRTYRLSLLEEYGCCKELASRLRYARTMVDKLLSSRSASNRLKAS
T1 sequence (P04626 23-1255): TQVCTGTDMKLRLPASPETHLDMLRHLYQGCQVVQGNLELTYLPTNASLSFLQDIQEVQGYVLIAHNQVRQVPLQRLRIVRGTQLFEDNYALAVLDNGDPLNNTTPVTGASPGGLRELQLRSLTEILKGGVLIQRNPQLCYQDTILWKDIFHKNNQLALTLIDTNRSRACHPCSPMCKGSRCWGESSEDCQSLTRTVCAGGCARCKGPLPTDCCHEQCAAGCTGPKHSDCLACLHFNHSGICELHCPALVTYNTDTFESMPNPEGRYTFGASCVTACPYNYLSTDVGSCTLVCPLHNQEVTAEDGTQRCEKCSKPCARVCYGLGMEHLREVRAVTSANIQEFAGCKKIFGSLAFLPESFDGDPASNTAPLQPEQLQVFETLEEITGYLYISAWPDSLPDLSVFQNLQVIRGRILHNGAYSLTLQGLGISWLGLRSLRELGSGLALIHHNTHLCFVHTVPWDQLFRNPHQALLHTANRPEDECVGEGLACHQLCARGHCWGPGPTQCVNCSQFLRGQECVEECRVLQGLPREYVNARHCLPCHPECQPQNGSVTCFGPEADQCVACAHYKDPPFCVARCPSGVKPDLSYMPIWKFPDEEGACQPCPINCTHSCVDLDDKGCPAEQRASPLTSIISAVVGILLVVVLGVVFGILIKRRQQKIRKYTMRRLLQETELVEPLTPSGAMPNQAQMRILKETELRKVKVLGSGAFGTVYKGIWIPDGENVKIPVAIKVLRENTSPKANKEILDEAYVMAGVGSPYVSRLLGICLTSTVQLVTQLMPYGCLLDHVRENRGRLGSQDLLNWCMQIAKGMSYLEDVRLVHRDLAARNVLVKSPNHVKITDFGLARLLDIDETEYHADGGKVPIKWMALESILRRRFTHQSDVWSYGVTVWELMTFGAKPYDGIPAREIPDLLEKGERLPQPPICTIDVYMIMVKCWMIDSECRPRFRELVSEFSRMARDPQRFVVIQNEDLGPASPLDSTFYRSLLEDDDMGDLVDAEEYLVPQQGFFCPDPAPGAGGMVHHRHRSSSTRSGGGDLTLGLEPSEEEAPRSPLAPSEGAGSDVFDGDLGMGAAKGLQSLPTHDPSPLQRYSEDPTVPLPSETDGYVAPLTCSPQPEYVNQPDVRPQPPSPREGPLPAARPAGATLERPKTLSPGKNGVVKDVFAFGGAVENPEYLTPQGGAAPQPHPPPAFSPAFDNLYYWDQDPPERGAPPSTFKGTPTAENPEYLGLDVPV
T3 sequence (Q9UM73 19-1620): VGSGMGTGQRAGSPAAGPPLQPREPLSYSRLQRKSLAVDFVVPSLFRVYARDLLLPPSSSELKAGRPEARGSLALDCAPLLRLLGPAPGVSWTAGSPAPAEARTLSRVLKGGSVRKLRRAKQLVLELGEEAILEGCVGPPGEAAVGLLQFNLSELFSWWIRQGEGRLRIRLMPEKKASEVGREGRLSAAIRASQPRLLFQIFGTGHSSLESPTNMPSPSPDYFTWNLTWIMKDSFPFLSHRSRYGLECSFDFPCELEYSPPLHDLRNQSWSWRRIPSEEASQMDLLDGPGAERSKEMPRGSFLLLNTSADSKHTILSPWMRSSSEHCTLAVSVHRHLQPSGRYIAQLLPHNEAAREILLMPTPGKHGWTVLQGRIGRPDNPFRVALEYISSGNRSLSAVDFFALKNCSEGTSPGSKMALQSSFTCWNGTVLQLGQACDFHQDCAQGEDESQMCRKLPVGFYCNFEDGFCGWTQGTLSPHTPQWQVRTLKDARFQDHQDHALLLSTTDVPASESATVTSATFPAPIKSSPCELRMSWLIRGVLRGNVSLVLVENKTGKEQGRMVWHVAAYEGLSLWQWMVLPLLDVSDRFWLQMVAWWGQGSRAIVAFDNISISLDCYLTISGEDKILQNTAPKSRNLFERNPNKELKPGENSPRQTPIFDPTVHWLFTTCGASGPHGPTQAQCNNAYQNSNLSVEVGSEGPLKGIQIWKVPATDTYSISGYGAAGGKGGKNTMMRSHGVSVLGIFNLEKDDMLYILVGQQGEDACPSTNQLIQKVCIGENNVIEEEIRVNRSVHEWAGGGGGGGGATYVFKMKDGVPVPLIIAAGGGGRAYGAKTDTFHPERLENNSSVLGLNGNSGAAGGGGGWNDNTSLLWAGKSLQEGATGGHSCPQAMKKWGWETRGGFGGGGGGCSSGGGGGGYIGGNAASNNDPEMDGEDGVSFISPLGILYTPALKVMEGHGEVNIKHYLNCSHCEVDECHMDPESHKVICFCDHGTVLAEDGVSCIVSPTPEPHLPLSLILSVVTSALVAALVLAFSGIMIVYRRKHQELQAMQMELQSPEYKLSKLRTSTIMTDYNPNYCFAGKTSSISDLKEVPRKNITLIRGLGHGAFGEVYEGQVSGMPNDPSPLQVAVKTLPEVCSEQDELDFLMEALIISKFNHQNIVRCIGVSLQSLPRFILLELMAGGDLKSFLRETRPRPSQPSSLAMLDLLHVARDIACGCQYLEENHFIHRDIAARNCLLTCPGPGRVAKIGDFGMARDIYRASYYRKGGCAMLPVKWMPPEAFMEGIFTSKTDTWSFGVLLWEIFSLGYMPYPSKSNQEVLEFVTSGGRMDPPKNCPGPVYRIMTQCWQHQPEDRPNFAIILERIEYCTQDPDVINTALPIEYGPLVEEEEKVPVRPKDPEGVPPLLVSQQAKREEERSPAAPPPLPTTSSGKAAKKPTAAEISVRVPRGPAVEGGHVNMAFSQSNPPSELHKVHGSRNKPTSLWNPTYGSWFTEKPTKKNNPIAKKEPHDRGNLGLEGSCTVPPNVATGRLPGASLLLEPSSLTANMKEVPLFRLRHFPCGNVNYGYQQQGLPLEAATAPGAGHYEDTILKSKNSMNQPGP
T7 sequence (P45984 whole entry): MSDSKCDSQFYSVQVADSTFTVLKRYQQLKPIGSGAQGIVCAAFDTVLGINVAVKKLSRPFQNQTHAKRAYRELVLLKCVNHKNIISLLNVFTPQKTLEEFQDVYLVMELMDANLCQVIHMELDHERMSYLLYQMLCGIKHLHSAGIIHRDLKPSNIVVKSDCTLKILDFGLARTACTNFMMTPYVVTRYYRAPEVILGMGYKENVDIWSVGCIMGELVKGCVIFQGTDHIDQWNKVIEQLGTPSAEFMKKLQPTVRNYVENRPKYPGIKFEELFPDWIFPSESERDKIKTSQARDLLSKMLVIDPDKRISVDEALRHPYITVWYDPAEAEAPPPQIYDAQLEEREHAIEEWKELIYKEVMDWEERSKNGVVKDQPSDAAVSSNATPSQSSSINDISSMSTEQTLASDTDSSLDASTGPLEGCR
T2 sequence (P49759 whole entry): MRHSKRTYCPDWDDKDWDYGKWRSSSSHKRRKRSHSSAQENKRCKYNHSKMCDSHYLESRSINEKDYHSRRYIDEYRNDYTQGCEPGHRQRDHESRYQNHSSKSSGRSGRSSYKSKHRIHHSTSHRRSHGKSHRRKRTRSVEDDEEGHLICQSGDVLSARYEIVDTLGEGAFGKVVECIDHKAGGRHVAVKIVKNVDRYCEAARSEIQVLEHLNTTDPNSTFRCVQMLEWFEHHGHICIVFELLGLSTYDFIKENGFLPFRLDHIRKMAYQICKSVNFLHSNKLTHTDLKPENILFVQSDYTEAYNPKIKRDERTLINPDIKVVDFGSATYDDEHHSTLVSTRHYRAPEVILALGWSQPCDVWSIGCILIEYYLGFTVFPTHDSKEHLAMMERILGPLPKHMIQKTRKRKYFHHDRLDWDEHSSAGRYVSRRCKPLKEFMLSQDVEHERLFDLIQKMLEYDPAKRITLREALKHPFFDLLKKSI

SMILES | inhibition at 1 µM (ErbB2(h)) | IC50 (CLK1(h)) | inhibition at 1 µM (ALK(h)) | IC50 (CLK4(h)) | inhibition at 1 µM (Flt3(h)) | inhibition at 1 µM (IKKβ(h)) | inhibition at 1 µM (JNK2α2(h)) | inhibition at 1 µM (Plk1(h))
CC(C)n1cnc2c(Nc3cc(N)cc(Cl)c3)nc(NC3CCCCC3N)nc21 (racemic) [Compound 14, Racemic N^6-Cis-(3-Amino-5-Chlorophenyl)-N^2-(2-Aminocyclohexyl)-9-Isopropyl-9H-Purine-2,6-Diamine] | 3% | 18 nM | 10% | 54 nM | 93% | -9% | -6% | 60%
CC(C)n1cnc2c(Nc3cccc(Cl)c3)nc(N[C@H]3CCCC[C@@H]3N)nc21 [Compound 8, N^2-((1S,2S)-2-Aminocyclohexyl)-V-(3-Chlorophenyl)-9-Isopropyl-9H-Purine-2,6-Diamine] | 2% | 78 nM | 7% | 86 nM | 19% | -2% | 1% | 49%
CC(C)n1cnc2c(Nc3cccc(Cl)c3)nc(N[C@@H]3CCCC[C@@H]3N)nc21 [Compound 9, N^2-((1R,2S)-2-Aminocyclohexyl)-N^6-(3-Chlorophenyl)-9-Isopropyl-9H-Purine-2,6-Diamine] | 0% | 38 nM | -2% | 50 nM | 90% | -5% | 4% | 9%
